Experiments:
[1] = test system: NFκB; assay: EMSA of NFkB DNA binding in MCF7 cells; type: cell-based, human; details: pre-treated 10, 1, 0.1, 0.01, 0.001 μM for two hours, TNF 2000 IU/ml 30 min, FIG. 7A
Description: For the EMSA, the MCF7 cells were pre-treated with varying concentrations of CpdA (10, 1, 0.1, 0.01, and 0.001 μM) and DEX (0.1 μM) for two hours and subsequently TNF-induced or non-TNF-induced during 30 min at 2000 IU/ml. After the induction period, nuclear extracts were examined in EMSA assays. Cells were washed with ice-cold PBS, scraped off, and pelleted in 15 ml of PBS by centrifugation for 5 min at 2600 rpm at 4° C. and lysed for 30 minutes at 4° C. in Totex buffer (20 mM HEPES (pH 7.9), 350 mM NaCl, 1 mM MgCl, 0.5 mM EDTA, 0.1 mM EGTA, 5 mM DTT, 20% glycerol, 1% NP-40, 0.1% PMSF, 1% aprotinin (4 mg/ml leupeptin). Supernatants from a 4000-rpm 10-min centrifugation were collected, aliquoted and stored at −20° C. until further use. Radiolabelled oligonucleotides that correspond to a consensus κB DNA-binding element of the IL-6 promoter, and of activating protein 1 (AP-1) DNA target-were used for appropriate EMSA's. These oligonucleotides of about 25 nucleotides comprise centrally the transcription factor binding motif. […] The samples were analyzed by electrophoresis on 6% native polyacrylamide gels. […] Visualization and quantitation of radioactive signals was carried out by a Phosphorlmager and scanned using a bioimaging analyzer (Personal Molecular Imager® FX Bio-Rad). […]

[2] = test system: MCF7 breast cancer cells; assay: Human Cancer Pathway Finder GEarray hybridization, MCF7 cells; type: cell-based; details: 10^−5 M
Description: mRNA of MCF7 breast cancer cells left untreated or treated with CpdA was analyzed for variation in gene expression by means of RNase protection analysis and nylon arrayfilter hybridization (SuperArray filters i.e. cancer pathway finder and stress and toxicity pathway array). From these experiments it can be derived that the synephrine analogues show a unique gene expression profile with respect to target genes involved in apoptosis, cell cycle, metastasis, angiogenesis, stress responses, and the like. At the same time, the synephrine analogue-induced gene expression prophile is distinct from the gene expression response observed with classical glucorticoids.
For the total RNA extraction, 10^5 cell were homogenized in 1 ml of TRIzol Reagent (GIBCO BRL), incubated 5 minutes at room temperature; then added 200 μl chloroform, vortexed 15 seconds. Mix was incubated on ice for 5 minutes. Phase separation was done by centrifugation at 12000 rpm for 15 minutes at 4° C. […]
Membranes were washed twice with 5 ml of pre-warmed wash solution 2×SSC, 1% SDS for 10 minutes at 68° C. with agitation at 30-40 rpm/minute. […] Visualization and quantitation of radioactive bands was carried out by a Phosphorlmager and scanned using a bioimaging analyzer (Personal Molecular Imager® FX Bio-Rad). Densitometry analysis of autoradiograms was performed using Quantity One (Bio-Rad). […]

CNCC(Cl)c1ccc(OC(C)=O)cc1.Cl (centres unmarked) [CpdA, 2-(4-acetoxyphenyl)-2-chloro-N-methyl-ethylammonium chloride]
NFkB available for DNA binding (EMSA) [1]: significant impairment of NFkB available for DNA binding
Expression of cancer target genes TP53, TNFRSF12, MAP2K1, RAF, ITGA6, NCAM, PDGF, MMP9, MTA1, TIMP1 [2]: represses

— patent publication US8039501B2, “Synephrine derivatives useful as anti-inflammatory agents” (Universiteit Gent, priority 2005, dated 2011)
